Holding throughout (assay type): in vivo
Experiment [1] concerns complex cancer cells of kidney. Put plainly: Syrian hamster model of human kidney cancer, tumor growth (Example 6). Particulars: tumor-bearing hamsters, 30 consecutive days of treatment, sacrificed on 31st day from tumor inoculation. The source says:
The following example illustrates the benefit of a biological composition of the invention in a Syrian hamster model of human kidney cancer. The growth of the tumor in the hamsters was studied. Detailed description of the use of Syrian hamster to study kidney cancer can be found in, e.g., Liehr et al., 1991, Carcinogenesis 12:385-9, which is incorporated herein by reference in its entirety.
(§1) Complex cancer cells of kidney closely resembles the human kidney cancer pathology. See e.g., Modern Clinical Experimental Protocols, People's Republic of China Health Publishing House, 1997.
(§2) The biological composition comprising 10^8 cells per ml of activated and conditioned yeast cells of the strain Saccharomyces carlsbergensis Hansen strain AS2.189 was prepared by the methods described in Section 5.1 and subsections therein.
The animals used to generate the kidney cancer cells for the experiments were Syrian hamsters (obtainable from the Institute of Laboratory Animal Sciences, Chinese Academy of Medical Sciences, Beijing, China), an equal number of male and female, 5 to 6 months old, having an average body weight of 150 to 180 gram. […]
The hamsters received the biological compositions, untreated yeast cells, FUDR or saline on the same day as the tumor cells were transplanted. […] The weight of the hamsters and the weight of the tumor were determined by standard techniques.

Experiment [2] relates to complex cancer cells of kidney. The experiment can be described thus: Syrian hamster model of human kidney cancer, survival time over 6 months (Example 7). Particulars: for Number of live animals remaining in the groups after 30 days of treatment: 30 per group. How it is done:
The following example illustrates the benefit of a biological composition of the invention in a Syrian hamster model of human kidney cancer. The survival time of hamsters after tumor injection and treatment was studied.
as §2
The animals were prepared in a similar manner as described in Section 6.1.
The hamsters injected with tumor cells were immediately divided into 4 experimental groups of ten hamsters per group and one control group. The four experimental groups were triplicated (i.e., using a total of 120 hamsters in the experimental groups). In group 2AY, the hamsters received 0.5 ml of the biological composition once per day. In group 2NY, the hamsters received 0.5 ml of the untreated yeast cells once per day. In group 2FUDR, the hamsters were injected subcutaneously with 0.6 mg of fluoruridine (FUDR) per kg body weight per day. In group 2CK1, the hamsters received 0.5 ml of physiological saline once per day.
The hamsters received the biological compositions, untreated yeast cells, FUDR or saline on the same day as the tumor cells were transplanted. The hamsters in group 2CK2 also started receiving saline on the same day as the other four groups. The biological compositions, untreated yeast cells and saline were administered orally by a feeding tube and the FUDR by subcutaneous injection for 30 consecutive days. The hamsters were observed over 6 months from the day of tumor inoculation and survival was recorded. The weight of the hamsters and the weight of the tumor were determined by standard techniques.

Experiment [3] relates to complex cancer cells of kidney. Put plainly: Wistar rat model of human kidney cancer, survival over 6 months (Example 9). Particulars: for Number of live animals remaining in the groups after 30 days of treatment: 30 per group. The method, then:
(§3) The following example illustrates the benefit of a biological composition of the invention in a Wistar rat model of human kidney cancer. The growth of the tumor in the rats was studied.
as §2
The animals were prepared in a similar manner as described in Section 8.1.
The rats injected with tumor cells were kept for 5 days and then were divided into 4 experimental groups of ten rats per group and one control group. The four experimental groups were triplicated (i.e., using a total of 120 rats in the experimental groups). In group 2AY, the rats received 0.8 ml of the biological composition once per day. In group 2NY, the rats received 0.8 ml of the untreated yeast cells once per day. In group 2VCR, the rats were injected intravenously with 3 mg of […] (VCR) per kg body weight per day. In group 2CK1, the rats received 0.8 ml of physiological saline once per day.
The rats received the biological compositions, untreated yeast cells, VCR or saline on the same day as the tumor cells were transplanted. The rats in group 2CK2 also started receiving saline on the same day as the other four groups. The biological compositions, untreated yeast cells and saline were administered orally by a feeding tube and the VCR by intravenous injection for 30 consecutive days. The rats were observed over 6 months from the day of tumor inoculation and survival was recorded. The weight of the rats and the weight of the tumor were determined by standard techniques.

Experiment [4] relates to complex cancer cells of kidney. The experiment can be described thus: Wistar rat model of human kidney cancer, tumor growth (Example 8). Particulars: tumor-bearing rats, 30 consecutive days of treatment, sacrificed on 31st day from tumor inoculation.
From the text: as §3, §1, §2
The animals used to generate the kidney cancer cells for the experiments were Wistar rats (obtainable from the Chinese Academy of Military Medical Sciences, Beijing, China) having an average body weight of about 180 to 200 gram. The complex cancer cells of kidney (obtainable from the Shanghai Medical University, Shanghai, China) were generated from a Wistar rat with kidney cancer that was induced by subcutaneous injection of bismaleimidohexane (BHM). […]
The rats received the biological compositions, untreated yeast cells, VCR or saline on the same day as the tumor cells were transplanted. […] The weight of the rats and the weight of the tumor were determined by standard techniques.

The mark [5] stands for this setting: surviving hamsters, observed over 6 months.
Setting [6] is: surviving rats, observed over 6 months.

Turning to `O=c1[nH]c(=O)n([C@H]2C[C@H](O)[C@@H](CO)O2)cc1F` [FUDR, fluoruridine], the “mean weight of hamsters and standard deviation” value is 116.7 ± 4.9 g in experiment [1] and “all animals dead” in experiment [2] (setting [5]). Also, the “mean weight of tumor nodules and standard deviation” value in experiment [1] is recorded as 2.7 ± 1.2 mg; in experiment [2] (setting [5]), “all animals dead”. The “Number of live animals remaining in the groups after 30 days of treatment” value (shortened to “Number of live animals remaining”) is 30 in experiment [2] (hamsters, 0 month after cessation of treatment); 27 in experiment [2] (hamsters, 1 month after cessation of treatment); 11 in experiment [2] (hamsters, 2 months after cessation of treatment); 5 in experiment [2] (hamsters, 3 months after cessation of treatment); 0 in experiment [2] (hamsters, 4 months after cessation of treatment); 0 in experiment [2] (hamsters, 5 months after cessation of treatment). In experiment [2] (hamsters, 6 months after cessation of treatment), the “Number of live animals remaining” value is listed as 0. Also, in experiment [2] (hamsters, observed over 6 months), the “survival outcome during the experiment” value was “all died”.

Take `CC[C@]1(O)C[C@@H]2CN(CCc3c([nH]c4ccccc34)[C@@](C(=O)OC)(c3cc4c(cc3OC)N(C)[C@H]3[C@@](O)(C(=O)OC)[C@H](OC(C)=O)[C@]5(CC)C=CCN6CC[C@]43[C@@H]65)C2)C1` [VCR, vinblastine]: the “Number of live animals remaining” value in experiment [3] (rats, 0 month after cessation of treatment) is 30; in experiment [3] (rats, 1 month after cessation of treatment), 30; in experiment [3] (rats, 2 months after cessation of treatment), 30; in experiment [3] (rats, 3 months after cessation of treatment), 22; in experiment [3] (rats, 4 months after cessation of treatment) it was 13; in experiment [3] (rats, 5 months after cessation of treatment) it was 0. For the same molecule, the “Number of live animals remaining” value in experiment [3] (rats, 6 months after cessation of treatment) was 0. In addition, the “survival outcome during the experiment” value in experiment [3] (rats, observed over 6 months) is reported as “all died”. In addition, the results for the “mean weight of rats and standard deviation” value in experiment [3] (setting [6]) and in experiment [4] were “all animals dead” and 189.6 ± 2.5 g, respectively. For the same molecule, the “mean weight of tumor nodules and standard deviation” value in experiment [3] (setting [6]) is listed as “all animals dead”; in experiment [4] it was 3.7 ± 1.9 g.

These data come from patent publication US20040253259A1, “Biological compositions and methods for treatment of kidney cancer” (priority 2003, published 2004).
